In test [1] the test system is HeLa (human cervical cancer cells). Description: In vitro proliferation inhibition (CCK-8), HeLa. The test is classed as cell-based. The text has this: (§1) • 1) Cell sources: HeLa (human cervical cancer cells), CaSki (human cervical cancer intestinal metastasis cells), Huh7 (human liver cancer cells), HepG2 (human liver cancer cells), Hep3B (human liver cancer cells) were purchased from the Chinese Academy of Sciences cell bank (Shanghai); LO2 (human normal liver cells) and HcerEpic (human normal uterine epithelial cells) were from ATCC. • 2) Cell culture and passage: The cell culture and passage method is the same as that described in “The inhibitory effect of compounds on the OCT4 protein in tumor stem cells (CSC)”. • 3) Cell dosing treatment: The each type of cells mentioned above was digested, counted, and inoculated in each well of the 96 well cell culture plate (#3988, Corning) at a density of 5000 cells/200 μl culture medium. They were cultured in a cell culture incubator at 37° C. and 5% CO2 for 24 hours to allow the cells to fully adherent to the wall. Then, the original culture medium was replaced with complete culture medium containing gradient diluted KZT-A5 (each concentration with 3 repeated wells) as well as DMSO (#D5879, Sigma Aldrich) solvent control, and they are cultured for additional 72 hours. • 4) Pharmacodynamic test and statistics: First, the morphology of cells treated with the above compounds was observed, photographed and recorded using an inverted phase contrast microscope (X71, Olympus). Then the original culture medium was replaced with phenol red free culture medium containing CCK-8 detection reagent (#E606335, Shanghai Shenggong) respectively, and they are cultured in the incubator for additional 2 hours. Then the OD450 nm absorbance value (OD value) was measured on a multifunctional enzyme-linked immunosorbent assay (168-1130, Bio Rad). After the cells were treated with the test compound, the equations for calculating the cell survival rate or cell growth rate is: survival rate=GD value of the treated group/OD value of the control group×100%; the equations for calculating the growth inhibition rate of compounds on cell proliferation is: inhibition rate=(OD value of control group−OD value of the treated group)/OD value of control group×100%. Further, the IC50 of each compound was calculated in SPSS based on the inhibition rate.
(§2) • 1) Cell sources: Huh7 (human liver cancer cells), HepG2 (human liver cancer cells), Hep3B (human liver cancer cells), and HeLa (human cervical cancer cells) were all purchased from the Chinese Academy of Sciences cell bank (Shanghai), while LO2 (human normal liver cells) was obtained from ATCC. • 2) Cell culture and passage: The cell culture and passage method is the same as that described in “The inhibitory effect of compounds on human tumor cell lines from different tissue sources (1)”. • 3) Cell dosing treatment: The cell dosing treatment method is the same as that described in “The inhibitory effect of compounds on human tumor cell lines from different tissue sources (1). • 4) Pharmacodynamic test and statistics: The pharmacodynamic test and statistics method is the same as that described in “The inhibitory effect of compounds on human tumor cell lines from different tissue sources (1)”. The IC50 value data of the compound on each type of tumor cells is the average±standard deviation of three wells in one test.

Test [2] has as its system Huh7 (human liver cancer cells). Briefly: In vitro proliferation inhibition (CCK-8), Huh7. The test is classed as cell-based.
Description: as §1, §2

The subject of the next test is Caski cells. Description: Tumor microspheres cultured in Caski cells. The class given is cell-based, human. Conditions: 10 μM, 48 hours. The method, then: • 1) Cell sources: cervical cancer cells HeLa and Caski, liver cancer cells Hep3B and Huh7 were all purchased from the Chinese Academy of Sciences cell bank (Shanghai). • 2) Tumor microsphere culture: The specific culture method for tumor microspheres can be found in the literature (Cheng J et al. Tryptophan derivatives regulate the transfer of Oct4 in stem-like cancer cells. Nat Commun. 2015, 6:7209). Each tumor cell was cultured separately in a medium containing 2% B27, 10 ng/ml BFGF, 5 ng/ml EGF, and 10 ng/ml LIF to form CSC rich tumor microspheres. • 3) Cell dosing treatment: HeLa cell lines and Huh7 cell lines were inoculated in a 6-well plate containing the aforementioned culture medium at a density of 200 cells per well, while Hep3B cell lines and Caski cell lines were inoculated in a 6-well plate containing the aforementioned culture medium at a density of 2000 cells per well. KZT-A5 or AH057 at concentrations of 1 μM or 10 μM was added, and the morphology of tumor microspheres was observed, photographed and recorded after 48 hours of treatment.

A value given as a limit tells only on which side of the number the result lay.

What is called IC50 is the concentration needed to halve the response being measured. A low value points to greater potency in that assay.

For `COc1cc(/C=C2\CCc3c([nH]c4ccc(C)cc34)C2=O)ccc1O` [KZT-A5], the half-inhibitory concentration (IC50) was 570 nM in test [1] (72 hours, CCK-8, average of three wells in one test); under 1000 nM in test [1] (Homo sapiens, 72 h, CCK-8, average of three wells in one test); 700 ± 10 nM in test [1] (Homo sapiens, test (2), average±standard deviation of three wells); under 1000 nM in test [2] (Homo sapiens, Huh-7, 72 h, Huh7, 72 hours, CCK-8, average of three wells in one test); 1420 ± 120 nM in test [2] (Homo sapiens, Huh-7, Huh7, test (2), average±standard deviation of three wells); 800 nM in test [2] (Huh7, 72 hours, CCK-8, average of three wells in one test). In test [1] (Table 3), the “inhibitory effect compared with AH057” value is “comparable to AH057”. Besides, in test [2] (Huh7, FIG. 6), the “inhibitory effect on viability compared with AH057” value is on record as “more significant inhibitory effect”. The “inhibitory effect on tumor microspheres compared with AH057” value with Caski cells is reported as “more significant than that of the control compound AH057”.

The record behind these values is patent US20250034089A1, “TETRAHYDROCARBAZOLE COMPOUND, AND PHARMACEUTICAL COMPOSITION AND USE THEREOF” (NAIN BIOTECH (HANGZHOU) CO., LTD., priority 2021, published 2025).
